One assay has as its target human Gal-3 (hGal-3) (Homo sapiens (Human), UniProt P17931). The assay can be described thus: Competitive binding assay: biotinylated hGal-3 binding to microplate-adsorbed asialofetuin (ASF). To be noted: IC50 values from several measurements given as geomean. On the procedure:
(§1) The inhibitory activity of compounds is determined in competitive binding assays. This spectrophotometric assay measures the binding of biotinylated human Gal-3 (hGal-3) or human Gal-1 (hGal-1), respectively, to a microplate-adsorbed glycoprotein, asialofetuin (ASF) (Proc Natl Acad Sci USA. 2013 Mar. 26; 110(13):5052-7.). Alternatively, and preferably, a human Gal-1 version in which all six cysteines are substituted by serines may be used.
(§2) Briefly, compounds are serially diluted in DMSO (working dilutions). ASF-coated 384well plates are supplemented with 22.8 μL/well of biotinylated hGal-3 or hGal-1 in assay buffer (i.e. 300-1000 ng/mL biotinylated hGal-3 or hGal-1) to which 1.2 μL of compound working dilutions are added and mixed.
(§3) Plates are incubated for 3 hours at 4° C., then washed with cold assay buffer (3×50 uL), incubated for 1 hour with 25 μL/well of a streptavidin-peroxidase solution (diluted in assay buffer to 80 ng/mL) at 4° C., followed by further washing steps with assay buffer (3×50 uL). Finally, 25 μL/well of ABTS substrate is added.
(§4) The calculated IC50 values may fluctuate depending on the daily assay performance. Fluctuations of this kind are known to those skilled in the art. IC50 values from several measurements are given as geomean values.

The target in a further assay is human Gal-1 (hGal-1) (Homo sapiens, UniProt P09382, C131S/C17S/C43S/C61S/C89S). Briefly: Competitive binding assay: biotinylated hGal-1 binding to microplate-adsorbed asialofetuin (ASF). Conditions: IC50 values from several measurements given as geomean. On the procedure:
as §1, §2, §3, §4

The IC50 is the concentration at which inhibition is half-maximal. High values mean lower potency, low ones higher potency.

human Gal-3 (hGal-3), sequence (P17931 whole entry): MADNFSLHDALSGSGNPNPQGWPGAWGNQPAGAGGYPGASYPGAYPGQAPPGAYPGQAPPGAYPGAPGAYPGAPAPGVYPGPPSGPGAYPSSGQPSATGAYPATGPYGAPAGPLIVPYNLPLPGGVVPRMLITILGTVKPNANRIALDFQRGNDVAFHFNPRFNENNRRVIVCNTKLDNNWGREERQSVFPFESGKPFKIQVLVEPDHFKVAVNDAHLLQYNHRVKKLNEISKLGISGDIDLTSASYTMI

As for `CO[C@@H]1[C@@H](n2cc(-c3ccc(Cl)c(F)c3F)nn2)[C@@H](O)[C@@H](CO)O[C@@H]1Cc1cn([C@@H]2COC[C@H]2F)nn1` (single isomer, unassigned) [Example 2.1.74.D, (2R,3R,4S,5R,6R)-4-(4-(4-chloro-2,3-difluorophenyl)-1H-1,2,3-triazol-1-yl)-6-((1-((3R*,4S*)-4-fluorotetrahydrofuran-3-yl)-1H-1,2,3-triazol-4-yl)methyl)-2-(hydroxymethyl)-5-methoxytetrahydro-2H-pyran-3-ol], the half-maximal inhibitory concentration (IC50) on human Gal-3 (hGal-3) is 0.07 µM; on human Gal-1 (hGal-1), 3.54 µM.

`CO[C@@H]1[C@@H](n2cc(-c3ccc(Cl)c(F)c3F)nn2)[C@@H](O)[C@@H](CO)O[C@@H]1Cc1cn(C23CC(OC)(C2)C3)nn1` [Ex 2.1.29.]: the IC50 turned out to be 0.06 µM at human Gal-3 (hGal-3) and 2.1 µM at human Gal-1 (hGal-1).

As for `CO[C@@H]1[C@@H](n2cc(-c3ccc(Cl)c(F)c3F)nn2)[C@@H](O)[C@@H](CO)O[C@@H]1Cc1cn(C23CC(C)(C2)C3)nn1` [Ex 2.1.14.], the figures for the IC50 at human Gal-3 (hGal-3) and on human Gal-1 (hGal-1) were 0.05 µM and 3.45 µM, respectively.

Regarding `CO[C@@H]1[C@@H](n2cc(-c3ccc(F)c(F)c3F)nn2)[C@@H](O)[C@@H](CO)O[C@@H]1Cc1cn(C2(C)CC2)nn1` [Ex 3.1.23.], the half-inhibitory concentration (IC50) at human Gal-3 (hGal-3) was found to be 0.05 µM; on human Gal-1 (hGal-1), 0.39 µM.

For `CO[C@@H]1[C@@H](n2cc(-c3ccc(Br)c(F)c3F)nn2)[C@@H](O)[C@@H](CO)O[C@@H]1Cc1cn(C2(C(F)F)COC2)nn1` [Ex 4.1.53.], the concentration for half-maximal inhibition (IC50) turned out to be 0.02 µM on human Gal-3 (hGal-3) and 0.65 µM at human Gal-1 (hGal-1).

As to `CO[C@@H]1[C@@H](n2cc(-c3ccc(Cl)c(F)c3F)nn2)[C@@H](O)[C@@H](CO)O[C@@H]1Cc1cn(C2(C(F)(F)F)CCOCC2)nn1` [Ex 2.1.72., (2R,3R,4S,5R,6R)-4-(4-(4-chloro-2,3-difluorophenyl)-1H-1,2,3-triazol-1-yl)-2-(hydroxymethyl)-5-methoxy-6-((1-(4-(trifluoromethyl)tetrahydro-2H-pyran-4-yl)-1H-1,2,3-triazol-4-yl)methyl)tetrahydro-2H-pyran-3-ol], the IC50 at human Gal-3 (hGal-3) was determined as 0.05 µM; on human Gal-1 (hGal-1), 0.48 µM.

Regarding `CO[C@@H]1[C@@H](n2cc(-c3ccc(F)c(F)c3F)nn2)[C@@H](O)[C@@H](CO)O[C@@H]1Cc1cn(C23CC(C(F)(F)F)(C2)C3)nn1` [Ex 3.1.24.], the results for the 50% inhibitory concentration (IC50) on human Gal-3 (hGal-3) and at human Gal-1 (hGal-1) were 0.09 µM and 2.08 µM, respectively.

As to `CO[C@@H]1[C@@H](n2cc(-c3ccc(Br)c(F)c3F)nn2)[C@@H](O)[C@@H](CO)O[C@@H]1Cn1cc(C2(C)CC2)nn1` [Ex 4.2.23.], the IC50 at human Gal-3 (hGal-3) came out at 0.05 µM; on human Gal-1 (hGal-1), 2.48 µM.

Turning to `CO[C@@H]1[C@@H](n2cc(-c3ccc(F)c(F)c3F)nn2)[C@@H](O)[C@@H](CO)O[C@@H]1Cn1cc(C2CCCC2)nn1` [Ex 3.2.32.], the IC50 turned out to be 0.06 µM on human Gal-3 (hGal-3) and 1.15 µM on human Gal-1 (hGal-1).

With `CO[C@@H]1[C@@H](n2cc(-c3ccc(Cl)c(F)c3F)nn2)[C@@H](O)[C@@H](CO)O[C@@H]1Cc1cn([C@@H]2COCC[C@H]2F)nn1` [Example 2.1.65.A, (2R,3R,4S,5R,6R)-4-(4-(4-chloro-2,3-difluorophenyl)-1H-1,2,3-triazol-1-yl)-6-((1-((3R,4R)-4-fluorotetrahydro-2H-pyran-3-yl)-1H-1,2,3-triazol-4-yl)methyl)-2-(hydroxymethyl)-5-methoxytetrahydro-2H-pyran-3-ol], the IC50 was determined as 0.06 µM at human Gal-3 (hGal-3) and 1.8 µM on human Gal-1 (hGal-1).

On to `CO[C@@H]1[C@@H](n2cc(-c3ccc(Br)c(F)c3F)nn2)[C@@H](O)[C@@H](CO)O[C@@H]1Cc1cn(C2(C(F)(F)F)CC2)nn1` [Ex 4.1.54.], for which the concentration for half-maximal inhibition (IC50) on human Gal-3 (hGal-3) was 0.03 µM; at human Gal-1 (hGal-1), 1.17 µM.

On to `CO[C@@H]1[C@@H](n2cc(-c3ccc(C#N)c(F)c3F)nn2)[C@@H](O)[C@@H](CO)O[C@@H]1Cc1cn([C@H]2CCOC[C@@H]2F)nn1` [Ex 5.1.66.CD], for which the 50% inhibitory concentration (IC50) on human Gal-3 (hGal-3) is 0.03 µM; at human Gal-1 (hGal-1), 1.6 µM.

Turning to `CO[C@@H]1[C@@H](n2cc(-c3ccc(C)c(F)c3F)nn2)[C@@H](O)[C@@H](CO)O[C@@H]1Cc1cn(C2(C)CCC2)nn1` [Ex 1.1.13.], the IC50 was 0.03 µM at human Gal-3 (hGal-3) and 1.45 µM on human Gal-1 (hGal-1).

Consider `CO[C@@H]1[C@@H](n2cc(-c3ccc(Cl)c(F)c3F)nn2)[C@@H](O)[C@@H](CO)O[C@@H]1Cn1cc(C23CC(C2)C3)nn1` [Ex 2.2.12.], for which the IC50 at human Gal-3 (hGal-3) came out at 0.05 µM; at human Gal-1 (hGal-1) it was 3.4 µM.

Regarding `CO[C@@H]1[C@@H](n2cc(-c3ccc(F)c(F)c3F)nn2)[C@@H](O)[C@@H](CO)O[C@@H]1Cc1cn(C(C)(C)C(F)F)nn1` [Ex 3.1.28., (2R,3R,4S,5R,6R)-6-((1-(1,1-difluoro-2-methylpropan-2-yl)-1H-1,2,3-triazol-4-yl)methyl)-2-(hydroxymethyl)-5-methoxy-4-(4-(2,3,4-trifluorophenyl)-1H-1,2,3-triazol-1-yl)tetrahydro-2H-pyran-3-ol], the half-inhibitory concentration (IC50) came out at 0.03 µM on human Gal-3 (hGal-3) and 0.29 µM on human Gal-1 (hGal-1).

As to `CO[C@@H]1[C@@H](n2cc(-c3ccc(Br)c(F)c3F)nn2)[C@@H](O)[C@@H](CO)O[C@@H]1Cc1cn(C2(C(F)F)CC2)nn1` [Ex 4.1.51.], the IC50 at human Gal-3 (hGal-3) turned out to be 0.03 µM; on human Gal-1 (hGal-1), 1.29 µM.

Take `CO[C@@H]1[C@@H](n2cc(-c3ccc(Cl)c(F)c3F)nn2)[C@@H](O)[C@@H](CO)O[C@@H]1Cn1cc(C2CC3(C2)CC(F)(F)C3)nn1` [Ex 2.2.84.]: the IC50 was 0.24 µM on human Gal-3 (hGal-3) and 11 µM on human Gal-1 (hGal-1).

With `CO[C@@H]1[C@@H](n2cc(-c3ccc(F)c(F)c3F)nn2)[C@@H](O)[C@@H](CO)O[C@@H]1Cc1cn(C2(C)CC(F)(F)C2)nn1` [Ex 3.1.15.], the results for the IC50 on human Gal-3 (hGal-3) and at human Gal-1 (hGal-1) were 0.05 µM and 0.46 µM, respectively.

Consider `CO[C@@H]1[C@@H](n2cc(-c3ccc(Br)c(F)c3F)nn2)[C@@H](O)[C@@H](CO)O[C@@H]1Cn1cc(C2(C)CCC2)nn1` [Ex 4.2.13.], for which the figures for the IC50 on human Gal-3 (hGal-3) and on human Gal-1 (hGal-1) were 0.05 µM and 1.93 µM, respectively.

In the case of `CO[C@@H]1[C@@H](n2cc(-c3ccc(Cl)c(F)c3F)nn2)[C@@H](O)[C@@H](CO)O[C@@H]1Cc1cn([C@@H]2CCCC2(F)F)nn1` [Example 2.1.64.A, (2R,3R,4S,5R,6R)-4-(4-(4-chloro-2,3-difluorophenyl)-1H-1,2,3-triazol-1-yl)-6-((1-((R)-2,2-difluorocyclopentyl)-1H-1,2,3-triazol-4-yl)methyl)-2-(hydroxymethyl)-5-methoxytetrahydro-2H-pyran-3-ol], the figures for the IC50 on human Gal-3 (hGal-3) and on human Gal-1 (hGal-1) were 0.03 µM and 0.94 µM, respectively.

With `COCC1(n2cc(C[C@H]3O[C@H](CO)[C@H](O)[C@H](n4cc(-c5ccc(F)c(F)c5F)nn4)[C@H]3OC)nn2)CC1` [Ex 3.1.7., (2R,3R,4S,5R,6R)-2-(Hydroxymethyl)-5-methoxy-6-((1-(1-(methoxymethyl)cyclopropyl)-1H-1,2,3-triazol-4-yl)methyl)-4-(4-(2,3,4-trifluorophenyl)-1H-1,2,3-triazol-1-yl)tetrahydro-2H-pyran-3-ol], the IC50 amounted to 0.12 µM at human Gal-3 (hGal-3) and 1.2 µM on human Gal-1 (hGal-1).

Regarding `CO[C@@H]1[C@@H](n2cc(-c3ccc(F)c(F)c3F)nn2)[C@@H](O)[C@@H](CO)O[C@@H]1Cn1cc(C23CC(C2)C3)nn1` [Ex 3.2.12.], the IC50 at human Gal-3 (hGal-3) came to 0.04 µM; at human Gal-1 (hGal-1), 0.97 µM.

Turning to `CO[C@@H]1[C@@H](n2cc(-c3ccc(Br)c(F)c3F)nn2)[C@@H](O)[C@@H](CO)O[C@@H]1Cc1cn(C23CC(F)(C2)C3)nn1` [Ex 4.1.25., (2R,3R,4S,5R,6R)-4-(4-(4-bromo-2,3-difluorophenyl)-1H-1,2,3-triazol-1-yl)-6-((1-(3-fluorobicyclo[1.1.1]pentan-1-yl)-1H-1,2,3-triazol-4-yl)methyl)-2-(hydroxymethyl)-5-methoxytetrahydro-2H-pyran-3-ol], the results for the 50% inhibitory concentration (IC50) at human Gal-3 (hGal-3) and on human Gal-1 (hGal-1) were 0.05 µM and 3.22 µM, respectively.

As to `CO[C@@H]1[C@@H](n2cc(-c3ccc(Cl)c(F)c3F)nn2)[C@@H](O)[C@@H](CO)O[C@@H]1Cc1cn(C2(CO)CCCC2)nn1` [Ex 2.1.5.], the IC50 on human Gal-3 (hGal-3) turned out to be 0.06 µM; on human Gal-1 (hGal-1), 2.25 µM.

On to `CCC1(c2cn(C[C@H]3O[C@H](CO)[C@H](O)[C@H](n4cc(-c5ccc(Br)c(F)c5F)nn4)[C@H]3OC)nn2)COC1` [Ex 4.2.38.], for which the figures for the IC50 on human Gal-3 (hGal-3) and at human Gal-1 (hGal-1) were 0.05 µM and 2.26 µM, respectively.

`CO[C@@H]1[C@@H](n2cc(-c3ccc(C)c(F)c3F)nn2)[C@@H](O)[C@@H](CO)O[C@@H]1Cc1cn(C2(C)CC2)nn1` [Ex 1.1.23.]: the results for the 50% inhibitory concentration (IC50) on human Gal-3 (hGal-3) and on human Gal-1 (hGal-1) were 0.02 µM and 1.06 µM, respectively.

Consider `CO[C@@H]1[C@@H](n2cc(-c3ccc(C)c(F)c3F)nn2)[C@@H](O)[C@@H](CO)O[C@@H]1Cc1cn(C2CC3(CC3)C2)nn1` [Ex 1.1.26.], for which the IC50 turned out to be 0.06 µM at human Gal-3 (hGal-3) and 17.1 µM on human Gal-1 (hGal-1).

With `CO[C@@H]1[C@@H](n2cc(-c3ccc(Cl)c(F)c3F)nn2)[C@@H](O)[C@@H](CO)O[C@@H]1Cc1cn([C@]2(C)CCO[C@@H]2C)nn1` (single isomer, unassigned) [Example 2.1.68.B, (2R,3R,4S,5R,6R)-4-(4-(4-chloro-2,3-difluorophenyl)-1H-1,2,3-triazol-1-yl)-6-((1-((2R*,3R*)-2,3-dimethyltetrahydrofuran-3-yl)-1H-1,2,3-triazol-4-yl)methyl)-2-(hydroxymethyl)-5-methoxytetrahydro-2H-pyran-3-ol], the results for the IC50 at human Gal-3 (hGal-3) and on human Gal-1 (hGal-1) were 0.02 µM and 0.67 µM, respectively.
